The target of assay [1] is T1, Full length wild-type cereblon CRBN (Homo sapiens, UniProt Q96SW2).
T1 construct: Full length wild-type cereblon CRBN (80.0 nM, 10 μL) was incubated in assay buffer
As to the kind of experiment: Fluorescence polarization (FP) assay indicating cereblon binding. To be noted: bounds stated; read-out: IC50 value. How it is done:
Compound activity was monitored in a fluorescence polarization (FP) homogeneous assay using 1-[5-({2-[2-(2-{[2-(2,6-dioxopiperidin-3-yl)-1,3-dioxo-2,3-dihydro-1H-isoindol-4-yl]oxy}acetamido)ethoxy]ethyl}carbamoyl)pentyl]-3,3-dimethyl-2-[(1E,3E)-5-[(2E)-1,3,3-trimethyl-5-sulfo-2,3-dihydro-1H-indol-2-ylidene]penta-1,3-dien-1-yl]-3H-indol-1-ium-5-sulfonate as a fluorescent probe. Unless otherwise stated, all reagents were purchased from Sigma Aldrich. Enzymatic reactions were conducted in Perkin-Elmer Black 384 well ProxiPlate Plus (catalogue no. 6008269) in 10 μL total volume. Full length wild-type cereblon CRBN (80.0 nM, 10 μL) was incubated in assay buffer containing 20 mM HEPES (pH 8.0), […], 0.5 mM TCEP and 0.05% Tween 20 in the presence or absence of compound (300 nL). Inhibitors were stored as 10 mM DMSO stocks in an inert environment (low humidity, dark, low oxygen, room temperature) using the Storage Pod System. Compounds and DMSO were dispensed using the Echo E5XX (Labcyte Inc. USA) to give concentrations from 300 to 0.937 or 3000 to 9.3 nM in a 12 data point curve. […] Following incubation at room temperature for 30 min, the assay was initiated by dispensing the probe to a final concentration of 5 nM (2.5 nL of a 20 μM stock) using the Echo E5XX. FP was measured after a period of 12 hours using a Pherastar plate reader (BMG Labtech, Germany) exciting at 590 nm and measuring the amount of parallel and perpendicular light at 675 nm. The FP signal was subsequently normalized to the no-compound control (i.e., DMSO). Analysis and IC50 values were derived using Dotmatics (Dotmatics UK) software.

In assay [2] the test system is HMEC engineered to express c-Myc tagged with EGFP. As to the kind of experiment: 3D spheroid assay, myc-HMEC (CellTiterGlo3D). The class given is cell-based. The settings on record: Homo sapiens, bounds (codes D and E), read-out: EC50 value. How it is done:
Human mammary epithelial cells (HMEC) were engineered to express either c-Myc tagged with EGFP or EGFP alone (non myc) (analogous but distinct from Kessler J D et al, Science. 2012 Jan. 20; 335(6066):348-53. doi: 10.1126/science.1212728; Hsu T Y et al, Nature. 2015 Sep. 17; 525(7569):384-8. doi: 10.1038/nature14985). The engineered cells were seeded at 1000 (myc) or 4000 (non myc) cells/well in a 384 ultra-low attachment plate in a total volume of 40 μL HMEC cell culture media (DMEM/F12+10% HI-FBS+15 mM HEPES+0.5 ug/ml Hydrocortisone+10 ug/ml Insulin+20 ng/ml EGF). Plates were spun at 1200 rpm for 5 minutes at room temperature to ensure that cells have gathered in the middle of the well and incubated at 37° C. for 48 hrs before firing with compounds. On Day 2 (48 h post seeding) cells were imaged (brightfield and EGFP fluorescence) using the Celigo imaging cytometer prior to firing compounds. For primary screens, compounds were added at three concentrations (1.25, 10 and 30 uM) in a volume of 120 nL using the ECHO acoustic dispenser and spun at 2000 rpm for 2 minutes at room temperature before incubating at 37° C. for 5 days. […] On Day 7, prior to measuring cell viability using CellTiterGlo3D, cells were imaged (brightfield and EGFP fluorescence) on the Celigo imaging cytometer. The CellTiterGlo3D reagent is added at 30 uL/well and incubated at room temperature for 30 mins. After 30 mins of incubation, luminescence readings were recorded using the Perkin Elmer EnVision reader.
On the technique in general: In ATP-based viability assays light output follows the ATP content of the culture.

Assay [3] has as its target T2, ZFP91 (Homo sapiens, UniProt Q96JP5+Q96SW2).
T2 construct: endogenous in cells; host or cells: MM1 S (ATCC CRL-2974)
As to the kind of experiment: Selectivity western blot assay in MM1 S cells, ZFP91. The class given is cell-based. To be noted: MM1 S cells, 0.3, 3 and 30 μM, 6 hours. As to the method: (§1) MM1 S cells were purchased from ATCC (cat. Number CRL-2974), sub-cultured in 90% RPMI 1640 with 10% FBS, supplemented with 1×P/S and incubated at 37° C., 5% CO2. Compounds were stored as 10 mM DMSO stock. For the assay, MM1 S cells (3 million cells/well) were plated in 6-well plates and incubated over night. Cells were treated with respective compounds using a serial dilution: 0.3 μM, 3 μM and 30 μM as well as a vehicle only (DMSO) control for 6 hours. Media with suspension cells was subsequently transferred to 15 mL conical tubes, wells rinsed twice with ice-cold PBS and merged with cell suspension in respective 15 mL conical tube. Cells were spinned down, supernatant aspirated, pellets resuspended in ice-cold PBS and transferred to microtubes. Cells were spinned down, supernatant aspirated and pellets resuspended in 120 μL RIPA lysis buffer supplemented with protease and phosphatase inhibitors. Cell lysates were incubated on ice for 20 minutes followed by centrifugation at >20,000×g for 5 min. Supernatants were transferred to fresh microtubes and stored at −80° C. Total protein concentration was determined using a BCA assay with a BSA standard curve and concentration of all samples was adjusted to 1 mg/mL. 25 μL 4×LDS sample buffer supplemented with 100 mM DTT was added to 75 μL sample. Samples were centrifuged (8,000×g, 1 min) and incubated at 95° C. for 5 min followed by another centrifugation step (8,000×g, 1 min). 20 μL of each sample was loaded on a 4-12% gel alongside a protein molecular weight marker. Gels were run in the presence of MOPS buffer at 80 Volts for 30 min, followed by 120 Volts for 1.5 h and proteins subsequently transferred onto nitrocellulose membranes at 20 Volts for 7 min using an iBlot2 Gel Transfer Device. Membranes were then cut horizontally into two pieces, covering 80-50 kDa and 50-25 kDa. Blocking the membranes was performed by gently shaking in 5% (w/v) skim milk in TSB-T for 1 hr at room temperature. All primary antibodies were used at a 1/1000 in 5% (w/v) BSA dissolved in TBST and incubated with membranes over night at 4° C. After three washes with 1×TBST for 5 min, HRP-coupled secondary antibodies diluted in 5% (w/v) BSA/TBST (Goat Anti-Rb IgG, dil. 1/10,000; Goat Anti-Mouse IgG, dil. 1/5000) were added for 1 hr at room temperature. After three washes with 1×TBST (5 minutes each), membranes were incubated with ECL reagent for 1 min at room temperature. Chemiluminescence signals were then detected using a LAS-4000 system with default settings and signals quantified using Image Studio Lite software (version 5.2). Membrane parts previously incubated with antibody against CK1 alpha were stripped off antibodies by incubating with stripping buffer for 30 minutes followed by three washed with TBST (5 min each), blocking with 5% (w/v) skim milk for 1 hr, and incubation with primary antibody against uGAPDH overnight at 4° C. Subsequent washes, incubation with secondary antibody and signal acquisition were performed as described above.
(A western blot detects proteins with antibodies after separation by electrophoresis.)

The target in assay [4] is T3, GSPT1 (Homo sapiens, UniProt P15170+Q96SW2). As to the kind of experiment: Selectivity western blot assay in MM1 S cells, GSPT1. Further details: endogenous in cells; host or cells: MM1 S (ATCC CRL-2974). It counts as cell-based. To be noted: MM1 S cells, 0.3, 3 and 30 μM, 6 hours. As to the method:
as §1

Assay [5] deals with T4, CK1alpha (Homo sapiens, UniProt P48729+Q96SW2).
T4 construct: endogenous in cells; host or cells: MM1 S (ATCC CRL-2974)
T4 sequence (P48729 whole entry): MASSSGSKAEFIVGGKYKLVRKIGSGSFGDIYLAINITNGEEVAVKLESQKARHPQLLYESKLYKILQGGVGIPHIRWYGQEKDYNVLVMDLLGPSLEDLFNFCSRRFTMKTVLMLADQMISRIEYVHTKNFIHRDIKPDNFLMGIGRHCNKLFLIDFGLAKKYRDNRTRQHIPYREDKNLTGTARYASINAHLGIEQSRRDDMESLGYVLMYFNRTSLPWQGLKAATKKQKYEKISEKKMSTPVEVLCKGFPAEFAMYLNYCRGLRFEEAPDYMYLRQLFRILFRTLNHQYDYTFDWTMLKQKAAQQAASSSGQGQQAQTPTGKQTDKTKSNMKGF
T4 sequence (Q96SW2 whole entry): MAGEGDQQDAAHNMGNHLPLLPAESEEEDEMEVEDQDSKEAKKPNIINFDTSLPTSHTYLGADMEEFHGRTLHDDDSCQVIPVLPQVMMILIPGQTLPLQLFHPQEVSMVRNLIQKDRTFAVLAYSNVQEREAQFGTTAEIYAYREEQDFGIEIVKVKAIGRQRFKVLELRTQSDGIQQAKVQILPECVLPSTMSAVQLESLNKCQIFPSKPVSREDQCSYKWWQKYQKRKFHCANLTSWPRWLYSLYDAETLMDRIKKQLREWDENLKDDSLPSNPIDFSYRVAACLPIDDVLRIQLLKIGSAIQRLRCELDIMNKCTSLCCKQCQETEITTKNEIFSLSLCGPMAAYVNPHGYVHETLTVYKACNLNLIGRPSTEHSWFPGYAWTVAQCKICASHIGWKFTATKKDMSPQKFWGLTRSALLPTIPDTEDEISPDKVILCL
T4 sequence (Q16531 whole entry partner): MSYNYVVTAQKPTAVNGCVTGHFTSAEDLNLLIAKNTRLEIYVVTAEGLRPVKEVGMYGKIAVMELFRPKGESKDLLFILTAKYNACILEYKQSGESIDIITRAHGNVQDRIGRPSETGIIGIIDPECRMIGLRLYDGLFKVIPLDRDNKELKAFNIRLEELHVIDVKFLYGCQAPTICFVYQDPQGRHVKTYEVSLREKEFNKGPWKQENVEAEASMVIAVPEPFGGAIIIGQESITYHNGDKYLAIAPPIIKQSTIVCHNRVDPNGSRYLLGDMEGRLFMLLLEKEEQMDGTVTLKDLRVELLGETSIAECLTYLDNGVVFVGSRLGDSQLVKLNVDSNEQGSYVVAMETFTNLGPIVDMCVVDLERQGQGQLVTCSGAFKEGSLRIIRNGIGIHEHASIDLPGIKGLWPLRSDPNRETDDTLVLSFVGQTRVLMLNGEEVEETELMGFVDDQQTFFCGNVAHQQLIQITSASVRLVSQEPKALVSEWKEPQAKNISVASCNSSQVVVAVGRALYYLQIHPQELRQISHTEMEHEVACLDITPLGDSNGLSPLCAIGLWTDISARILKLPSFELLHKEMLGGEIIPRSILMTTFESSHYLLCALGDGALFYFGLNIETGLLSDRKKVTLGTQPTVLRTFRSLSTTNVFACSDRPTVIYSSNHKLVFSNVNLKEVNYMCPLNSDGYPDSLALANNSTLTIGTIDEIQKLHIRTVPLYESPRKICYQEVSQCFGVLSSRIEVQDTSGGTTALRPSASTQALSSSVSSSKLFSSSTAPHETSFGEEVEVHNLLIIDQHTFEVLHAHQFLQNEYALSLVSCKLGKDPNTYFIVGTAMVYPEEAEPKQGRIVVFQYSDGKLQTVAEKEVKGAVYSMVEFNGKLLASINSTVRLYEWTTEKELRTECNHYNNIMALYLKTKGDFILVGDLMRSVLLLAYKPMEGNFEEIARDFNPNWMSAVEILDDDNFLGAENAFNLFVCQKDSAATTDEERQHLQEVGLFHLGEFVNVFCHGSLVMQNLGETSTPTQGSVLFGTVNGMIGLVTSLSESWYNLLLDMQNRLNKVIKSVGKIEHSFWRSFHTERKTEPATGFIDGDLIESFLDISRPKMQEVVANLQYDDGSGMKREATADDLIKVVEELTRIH
As to the kind of experiment: Selectivity western blot assay in MM1 S cells, CK1alpha. The class given is cell-based. To be noted: MM1 S cells, 0.3, 3 and 30 μM, 6 hours. How it is done: as §1

For assay [6], the target named is T5, IKZF1 (Homo sapiens, UniProt Q13422+Q96SW2).
T5 construct: endogenous in cells; host or cells: MM1 S (ATCC CRL-2974)
T5 sequence (Q13422 whole entry): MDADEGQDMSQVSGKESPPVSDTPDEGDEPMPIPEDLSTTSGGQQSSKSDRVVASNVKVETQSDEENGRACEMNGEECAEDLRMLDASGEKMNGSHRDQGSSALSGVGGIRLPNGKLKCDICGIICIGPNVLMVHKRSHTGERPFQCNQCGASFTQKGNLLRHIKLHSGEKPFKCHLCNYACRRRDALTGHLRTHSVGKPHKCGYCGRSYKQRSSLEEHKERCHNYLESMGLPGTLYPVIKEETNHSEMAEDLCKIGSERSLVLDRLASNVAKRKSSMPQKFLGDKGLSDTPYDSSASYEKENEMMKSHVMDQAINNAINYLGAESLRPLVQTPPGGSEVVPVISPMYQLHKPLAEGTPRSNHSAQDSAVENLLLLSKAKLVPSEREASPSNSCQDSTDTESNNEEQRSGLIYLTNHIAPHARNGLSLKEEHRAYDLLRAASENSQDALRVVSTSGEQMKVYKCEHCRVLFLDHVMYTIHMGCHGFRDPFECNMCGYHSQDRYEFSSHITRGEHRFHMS
T5 sequence (Q96SW2 whole entry): as the sequence (Q96SW2 whole entry) above
T5 sequence (Q16531 whole entry partner): as the sequence (Q16531 whole entry partner) above
As to the kind of experiment: Selectivity western blot assay in MM1 S cells, IKZF1. It counts as cell-based. Further details: key: A represents no degradation observed at 30 μM; B represents trace degradation at 30 μM (below 20%); C represents weak degradation at 30 μM (below 50%); D represents degradation at 30 μM (>90%); E represents degradation at 3 μM (>90%); F represents degradation at 0.3 μM (>90%). The settings on record: MM1 S cells, 0.3, 3 and 30 μM, 6 hours. How it is done:
as §1

In assay [7] the target is T6, IKZF3 (Homo sapiens, UniProt Q96SW2+Q9UKT9).
T6 construct: endogenous in cells; host or cells: MM1 S (ATCC CRL-2974)
T6 sequence (Q9UKT9 whole entry): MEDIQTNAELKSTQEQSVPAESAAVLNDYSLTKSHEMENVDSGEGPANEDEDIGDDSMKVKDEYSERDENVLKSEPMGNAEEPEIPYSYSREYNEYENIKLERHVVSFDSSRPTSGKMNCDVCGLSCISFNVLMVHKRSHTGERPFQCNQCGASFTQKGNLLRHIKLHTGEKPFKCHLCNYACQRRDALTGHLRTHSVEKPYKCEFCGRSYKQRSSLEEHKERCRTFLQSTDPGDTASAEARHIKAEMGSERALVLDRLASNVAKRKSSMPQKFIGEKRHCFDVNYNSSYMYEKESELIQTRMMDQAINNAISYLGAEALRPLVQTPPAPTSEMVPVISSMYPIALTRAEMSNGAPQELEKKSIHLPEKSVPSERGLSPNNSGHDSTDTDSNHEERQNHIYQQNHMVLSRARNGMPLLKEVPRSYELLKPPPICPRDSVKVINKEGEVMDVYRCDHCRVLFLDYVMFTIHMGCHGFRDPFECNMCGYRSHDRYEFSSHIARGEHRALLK
T6 sequence (Q96SW2 whole entry): as the sequence (Q96SW2 whole entry) above
T6 sequence (Q16531 whole entry partner): as the sequence (Q16531 whole entry partner) above
As to the kind of experiment: Selectivity western blot assay in MM1 S cells, IKZF3. The class given is cell-based. More on the design: key: A represents no degradation observed at 30 μM; B represents trace degradation at 30 μM (below 20%); C represents weak degradation at 30 μM (below 50%); D represents degradation at 30 μM (>90%); E represents degradation at 3 μM (>90%); F represents degradation at 0.3 μM (>90%). To be noted: MM1 S cells, 0.3, 3 and 30 μM, 6 hours. How it is done: as §1

Assay [8] addresses T3, GSPT1. As to the kind of experiment: GSPT1 degradation immunofluorescence assay in CAL-51 cells. The class given is cell-based. Further details: endogenous in cells; host or cells: CAL-51 (DSMZ ACC302). To be noted: 6 hours, Table 5A, read-out: Activity for GSPT1 degradation, Code (DC50). As to the method:
CAL-51 cells were purchased from DSMZ (cat. Number ACC302), sub-cultured in 90% Dulbecco's MEM (4.5 g/L glucose, Gibco 11965)+10% heat inactivated FBS (BioConcept, 2-01F1361) and incubated at 37° C., 5% CO2. For the assay, imaging microtiterplate Cell Carrier 96 Ultra (Perkin Elmer 6055302) were pre-coated with Fibronectin (Sigma F085, 30 μl at 0.2 μg/ml) in PBS (100 μl, Gibco 14190) for 45 min at room temperature, rinsed with PBS and CAL-51 cells (30K cells/well) were plated and let to adhere overnight. Cells were treated with compounds typically using a serial dilution ranging from 30 μM to 0.1 nM for 6 hours. Compounds were stored at 10 mM DMSO stocks. Vehicle (DMSO), positive (CC-885, 10 μM) and rescue controls (positive control plus 0.2 μM bortezomib) were also included at this stage. Cells were subsequently rinsed with PBS and fixed in 10% Formalin solution (50 μl, Sigma HT5011)) for 20 mins at room temperature. Following three consecutive PBS washes (100 μl), cells were permeabilized in 0.1% Triton X-100 in PBS (Sigma 93443, 50 μl) for 15 mins at room temperature. Following three further PBS washes, 50 μl blocking buffer (1% BSA, Sigma A4503, in PBS) was added for 45 min for signal-to-noise reduction. Primary antibody (human GSPT1, Sigma HPA052488) was diluted in blocking buffer (dil. 1/300, 35 μl/well) and incubated with the cells overnight at 4° C. After three PBS washes, Alexa-fluor 488 coupled secondary antibodies (Invitrogen, A32731, dil. 1/1000), Alexa-fluor 647-Phalloidin (Invitrogen, A22287, dil. 1/200) and DAPI (Thermo, #62248, dil. 1/1000) were diluted in blocking buffer and incubated with the samples for 2 hours at room temperature. After three final PBS washes, samples were conserved in 100 μl PBS in the dark, until measurement. Image acquisition was performed on the Operetta High-Content Imager (Perkin-Elmer). Fluorescence intensity of Alexa-Fluor 488 (GSPT1), Alexa-Fluor 647 (Actin) and DAPI (Nucleus) were measured. For the determination of GSPT1 DC50 values, a custom algorithm implemented in the PerkinElmer image analysis software Harmony-Acapella® was developed. After user-defined setting of adjustment parameters, the analysis was run identically without human intervention for all image fields. DAPI staining of the nuclei was used to determine the location of cells using standard nuclei detection modules. Segmentation artifacts were removed by threshold-based filters for area, roundness and intensity. The outline of the cells was determined analogously from the sum of the normalized, smoothed DAPI and Actin channel, starting from each nucleus. The Alexa-Fluor 488 (GSPT1) signal intensity in each cell was finally measured, in order to obtain a Mean intensity per cell. GSPT1 degradation (DC50) was calculated after normalization to controls and data import in CDD vault Database, using non-linear regression.

T1 sequence (Q96SW2 whole entry): as the sequence (Q96SW2 whole entry) above
T3 sequence (P15170 whole entry): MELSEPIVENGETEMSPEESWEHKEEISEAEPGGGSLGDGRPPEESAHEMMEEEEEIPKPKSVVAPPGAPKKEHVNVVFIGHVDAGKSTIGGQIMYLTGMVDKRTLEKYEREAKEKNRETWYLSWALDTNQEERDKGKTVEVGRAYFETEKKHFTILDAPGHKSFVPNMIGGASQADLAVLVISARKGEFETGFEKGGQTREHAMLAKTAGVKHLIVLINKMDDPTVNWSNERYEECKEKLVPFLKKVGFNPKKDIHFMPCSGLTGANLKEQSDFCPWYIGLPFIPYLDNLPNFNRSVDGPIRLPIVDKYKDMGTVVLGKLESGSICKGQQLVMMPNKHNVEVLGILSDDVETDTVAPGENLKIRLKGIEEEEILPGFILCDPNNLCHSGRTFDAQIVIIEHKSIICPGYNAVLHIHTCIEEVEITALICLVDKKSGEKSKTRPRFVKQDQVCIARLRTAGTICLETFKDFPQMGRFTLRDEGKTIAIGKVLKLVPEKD
T3 sequence (Q96SW2 whole entry): as the sequence (Q96SW2 whole entry) above
T3 sequence (Q16531 whole entry partner): as the sequence (Q16531 whole entry partner) above
T2 sequence (Q96JP5 whole entry): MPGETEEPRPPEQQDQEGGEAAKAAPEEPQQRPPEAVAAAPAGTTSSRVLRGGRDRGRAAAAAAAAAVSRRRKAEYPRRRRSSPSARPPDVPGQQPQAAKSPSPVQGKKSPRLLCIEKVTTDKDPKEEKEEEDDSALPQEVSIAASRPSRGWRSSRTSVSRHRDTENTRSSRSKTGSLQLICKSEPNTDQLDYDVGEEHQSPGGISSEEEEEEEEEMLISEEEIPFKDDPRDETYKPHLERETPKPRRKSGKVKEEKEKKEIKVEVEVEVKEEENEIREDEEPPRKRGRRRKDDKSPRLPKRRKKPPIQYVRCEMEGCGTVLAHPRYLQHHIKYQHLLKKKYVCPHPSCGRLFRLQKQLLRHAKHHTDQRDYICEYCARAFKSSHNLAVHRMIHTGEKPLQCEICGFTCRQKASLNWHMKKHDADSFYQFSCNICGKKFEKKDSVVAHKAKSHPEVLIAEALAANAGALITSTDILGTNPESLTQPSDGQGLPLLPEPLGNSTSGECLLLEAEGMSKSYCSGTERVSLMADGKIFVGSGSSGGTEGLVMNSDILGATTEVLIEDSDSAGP
T2 sequence (Q96SW2 whole entry): as the sequence (Q96SW2 whole entry) above
T2 sequence (Q16531 whole entry partner): as the sequence (Q16531 whole entry partner) above

Consider `Cc1cc(C)cc(NC(=O)NCc2ccc3c(c2)C(=O)N(C2CCC(=O)NC2=O)C3)c1` (stereo not shown) [Compound 20], for which the IC50 in assay [1] is below 600 nM. For the same compound, in assay [2], the concentration giving a half-maximal response (EC50) is at most 2000 nM.

Consider `O=C1CCC(N2Cc3ccc(COC(=O)Nc4cccc(OC(F)(F)F)c4)cc3C2=O)C(=O)N1` (stereo not shown) [Compound 203], for which the ZFP91 degradation result in assay [3] was “B (B represents trace degradation at 30 μM (below 20%))”. Further, the GSPT1 degradation entry in assay [4] is “F (F represents degradation at 0.3 μM (>90%))”. Further, the CK1alpha degradation result in assay [5] is “B (B represents trace degradation at 30 μM (below 20%))”. The IKZF1 degradation result in assay [6] is “A”. The IKZF3 degradation entry in assay [7] was “A”. The DC50 in assay [8] was at most 30 nM.

With `Cc1ccc(NC(=O)NCc2ccc3c(c2)C(=O)N(C2CCC(=O)NC2=O)C3)cc1C` (stereo not shown) [Compound 68], in assay [2], the EC50 was at most 2000 nM.

Take `COc1ccc(NC(=O)NCc2ccc3c(c2)C(=O)N(C2CCC(=O)NC2=O)C3)cc1Cl` (stereo not shown) [Compound 59]: the IC50 in assay [1] is below 600 nM. In addition, the EC50 in assay [2] is at most 2000 nM.

In the case of `CCc1cccc(NC(=O)NCc2ccc3c(c2)C(=O)N(C2CCC(=O)NC2=O)C3)c1` (stereo not shown) [Compound 31], in assay [2], the EC50 is at most 2000 nM.

For the compound `O=C1CCC(N2Cc3ccc(CNC(=O)Nc4cccc(C(F)(F)F)c4)cc3C2=O)C(=O)N1` (stereo not shown) [Compound 47], the IC50 in assay [1] was below 600 nM. In assay [2], the EC50 was at most 2000 nM.

Regarding `O=C1CCC(N2Cc3ccc(CNC(=O)Nc4ccc(Cl)c(Cl)c4)cc3C2=O)C(=O)N1` (stereo not shown) [Compound 46], the IC50 in assay [1] is below 600 nM. Further, in assay [2], the EC50 was at most 2000 nM.

As a reminder, the IC50 is the concentration that inhibits the measured activity by half. By EC50 is commonly meant the concentration that produces a half-maximal response. As a reminder, the DC50 is the midpoint of the concentration-degradation curve.

The values above are taken from US20240261274A1, “TREATMENT OF MYC-DRIVEN CANCERS WITH GSPT1 DEGRADERS” (MONTE ROSA THERAPEUTICS, INC., priority 2021, published 2024).
